Source: patent publication US20250230193A1, “CYCLIC COMPOUND HAVING SELECTIVE KRAS INHIBITORY EFFECT ON HRAS AND NRAS” (CHUGAI SEIYAKU KABUSHIKI KAISHA, priority 2022, published 2025)
*1 amine or outer side, *2 acyl side, *3 side chain or, on linkers, in order; H or OH if unused. Where a SMILES comes first, the peptide text is derived from it. Bridges are numbered along the chain shown (N, C = ends). [ ]: non-standard residue; d: D form. The star is where a group is joined. hPhe(3-Cl-4-CF3) = N[C@@H](CCc1ccc(C(F)(F)F)c(Cl)c1)C(=O)O; NPrPhe(4-Me) = CCCN[C@@H](Cc1ccc(C)cc1)C(=O)O; X22 = CCCN([C@@H](COC1CCC1)C(=O)[*:2])[*:1]; NMeGly(cPent) = CN[C@H](C(=O)O)C1CCCC1; NMeD = CN[C@@H](CC(=O)O)C(=O)O; NMeL = CN[C@@H](CC(C)C)C(=O)O; Morpholide = C1CN(*)CCO1; NMeA = CN[C@@H](C)C(=O)O; Ac5c = NC1(C(=O)O)CCCC1; Aze = O=C(O)[C@@H]1CCN1; Ac4c = NC1(C(=O)O)CCC1; Sar = CNCC(=O)O

Tests used:
[1] = target: GDP-bound NRAS wild-type protein (Homo sapiens, UniProt P01111); assay: Binding to NRAS by surface plasmon resonance (SPR), Single Cycle Kinetics; conditions: for NRAS/KRAS (ratio of KD value with respect to GDP-bound NRAS wild-type protein to KD value with respect to KRAS): class symbols; for NRAS/KRAS (ratio of KD value for NRAS to KD value for KRAS) / NRAS/KRAS (ratio of KD value with respect to NRAS to KD value with respect to KRAS): GDP-bound NRAS wild-type vs GDP-bound KRAS wild-type
GDP-bound NRAS wild-type protein, sequence (P01111 whole entry): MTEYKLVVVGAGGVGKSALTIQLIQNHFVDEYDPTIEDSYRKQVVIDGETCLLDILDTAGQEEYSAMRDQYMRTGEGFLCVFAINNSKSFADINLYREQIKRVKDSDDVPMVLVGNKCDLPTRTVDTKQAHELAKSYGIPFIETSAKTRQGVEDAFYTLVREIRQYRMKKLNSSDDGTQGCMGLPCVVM

[2] = target: GDP-bound HRAS wild-type protein (Homo sapiens, UniProt P01112); assay: Binding to HRAS by surface plasmon resonance (SPR), Single Cycle Kinetics; conditions: for HRAS/KRAS (ratio of KD value with respect to GDP-bound HRAS wild-type protein to KD value with respect to KRAS): class symbols; for HRAS/KRAS (ratio of KD value for HRAS to KD value for KRAS) / HRAS/KRAS (ratio of KD value with respect to HRAS to KD value with respect to KRAS): GDP-bound HRAS wild-type vs GDP-bound KRAS wild-type
GDP-bound HRAS wild-type protein, sequence (P01112 whole entry): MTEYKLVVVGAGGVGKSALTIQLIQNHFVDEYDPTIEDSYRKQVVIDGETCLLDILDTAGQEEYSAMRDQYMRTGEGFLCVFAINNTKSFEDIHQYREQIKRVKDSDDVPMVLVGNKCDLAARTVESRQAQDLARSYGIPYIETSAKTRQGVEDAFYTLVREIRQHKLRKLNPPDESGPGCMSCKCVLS

CCC[C@H]1C(=O)N[C@@H]([C@@H](C)CC)C(=O)N(C)CC(=O)N(C)[C@H]2C/C=C\CCN(C2=O)[C@@H](Cc2ccc(C(F)(F)F)cc2)C(=O)N(C)CC(=O)N[C@@H](CCc2cc(F)c(C(F)(F)F)c(F)c2)C(=O)N2C[C@H](OCC)C[C@H]2C(=O)NC2(CC(C)(C)C2)C(=O)N(C)[C@@H](CC2CC2)C(=O)N(C)[C@H](C(=O)N(C)C)CC(=O)N1C [PP2807]
NRAS/KRAS (ratio of KD value with respect to GDP-bound NRAS wild-type protein to KD value with respect to KRAS) ([1]; KD ratio NRAS/KRAS): AA (a compound having 20 or more is denoted as AA) | HRAS/KRAS (ratio of KD value with respect to GDP-bound HRAS wild-type protein to KD value with respect to KRAS) ([2]; KD ratio HRAS/KRAS): A (a compound having 10 or more and less than 20 is denoted as A)

CCCN1C(=O)CN(C)C(=O)CN(C)C(=O)[C@H]([C@@H](C)CC)NC(=O)[C@H](CC(C)C)N(C)C(=O)C[C@@H](C(=O)N2CCOCC2)N(C)C(=O)[C@H](C2CCCC2)N(C)C(=O)C2(CCCC2)NC(=O)[C@@H]2CCCN2C(=O)[C@H](CCc2ccc(C(F)(F)F)c(Cl)c2)NC(=O)CN(C)C(=O)[C@@H]1Cc1ccc(C)cc1 [PP0059] ([NMeL]I[Sar][Sar][NPrPhe(4-Me)][Sar][hPhe(3-Cl-4-CF3)]P[Ac5c][NMeGly(cPent)][NMeD]-Morpholide; lactam N-11)
NRAS/KRAS (ratio of KD for GDP-bound NRAS wild-type to KD for KRAS) ([1]; KD ratio NRAS/KRAS, SPR): B (a compound having 3 or more and less than 10 is denoted as B) | HRAS/KRAS (ratio of KD for GDP-bound HRAS wild-type to KD for KRAS) ([2]; KD ratio HRAS/KRAS, SPR): C (A compound having a KD ratio of 0.1 or more and less than 3 is denoted as C)

CCCN1C(=O)[C@@H]2CCN2C(=O)[C@H](C)N(C)C(=O)[C@H]([C@@H](C)CC)NC(=O)[C@H](CC(C)C)N(C)C(=O)C[C@@H](C(=O)N2CCOCC2)N(C)C(=O)[C@H](C2CCCC2)N(C)C(=O)C2(CCC2)NC(=O)[C@@H]2CCCN2C(=O)[C@H](CCc2ccc(C(F)(F)F)c(Cl)c2)NC(=O)CN(C)C(=O)[C@@H]1COC1CCC1 [PP1818] ([NMeL]I[NMeA][Aze][X22][Sar][hPhe(3-Cl-4-CF3)]P[Ac4c][NMeGly(cPent)][NMeD]-Morpholide; lactam N-11)
NRAS/KRAS (ratio of KD value for NRAS to KD value for KRAS) ([1]; KD ratio, SPR): C (A compound having a KD ratio of 0.1 or more and less than 3 is denoted as C) | HRAS/KRAS (ratio of KD value for HRAS to KD value for KRAS) ([2]; KD ratio, SPR): B (a compound having 3 or more and less than 10 is denoted as B)

CC[C@H](C)[C@@H]1NC(=O)[C@H](CC(C)C)N(C)C(=O)C[C@@H](C(=O)N(CC)CC)N(C)C(=O)[C@H](C2CCCC2)N(C)C(=O)C2(CCC2)NC(=O)[C@@H]2C[C@@H](C)CN2C(=O)[C@H](CCc2ccc(C(F)(F)F)c(OC)c2)NC(=O)CN(C)C(=O)[C@H](Cc2ccc(C)cc2)N2CC/C=C\C[C@@H](C2=O)N(C)C(=O)CN(C)C1=O [PP1849]
NRAS/KRAS (ratio of KD value for NRAS to KD value for KRAS) ([1]; KD ratio, SPR): A (a compound having 10 or more and less than 20 is denoted as A) | HRAS/KRAS (ratio of KD value for HRAS to KD value for KRAS) ([2]; KD ratio, SPR): A (a compound having 10 or more and less than 20 is denoted as A)

CCO[C@@H]1C[C@H]2C(=O)NC3(CCC3)C(=O)N(C)[C@@H](C3CCCC3)C(=O)N(C)[C@H](C(=O)N(C)C)CC(=O)N(C)[C@@H](CC3CCCC3)C(=O)N[C@@H]([C@@H](C)CC)C(=O)N(C)CC(=O)N(C)[C@H]3C/C=C\CCN(C3=O)[C@@H](Cc3ccc(C)cc3)C(=O)N(C)CC(=O)N[C@@H](CCc3cc(C)c(C(F)F)c(Cl)c3)C(=O)N2C1 [PP2677]
NRAS/KRAS (ratio of KD value with respect to GDP-bound NRAS wild-type protein to KD value with respect to KRAS) ([1]; KD ratio NRAS/KRAS): A (a compound having 10 or more and less than 20 is denoted as A) | HRAS/KRAS (ratio of KD value with respect to GDP-bound HRAS wild-type protein to KD value with respect to KRAS) ([2]; KD ratio HRAS/KRAS): A (a compound having 10 or more and less than 20 is denoted as A)

CCO[C@@H]1C[C@H]2C(=O)NC3(CCC3)C(=O)N(C)[C@@H](C3CCCC3)C(=O)N(C)[C@H](C(=O)N(C)C)CC(=O)N(C)[C@H]3CCCCCCc4ccc(cc4)C[C@@H](C(=O)N(C)CC(=O)N[C@@H](CCc4ccc(C(F)(F)F)c(OC)c4)C(=O)N2C1)N1CC/C=C\C[C@@H](C1=O)N(C)C(=O)CN(C)C(=O)[C@H]([C@@H](C)CC)NC3=O [PP2264]
NRAS/KRAS (ratio of KD value with respect to NRAS to KD value with respect to KRAS) ([1]; SPR): AA (a compound having 20 or more is denoted as AA) | HRAS/KRAS (ratio of KD value with respect to HRAS to KD value with respect to KRAS) ([2]; SPR): A (a compound having 10 or more and less than 20 is denoted as A)

CCO[C@@H]1C[C@H]2C(=O)NC3(CCC3)C(=O)N(C)[C@@H](C3CCCC3)C(=O)N(C)[C@H](C(=O)N3CCOCC3)CC(=O)N(C)[C@@H](CC(C)C)C(=O)N[C@@H]([C@@H](C)CC)C(=O)N(C)CC(=O)N(C)[C@H]3C[C@@H](C)CCN(C3=O)[C@@H](Cc3ccc(C(F)(F)F)cc3)C(=O)N(C)CC(=O)N[C@@H](CCc3cc(F)c(C(F)(F)F)c(F)c3)C(=O)N2C1 [PP1025]
NRAS/KRAS (ratio of KD value with respect to NRAS to KD value with respect to KRAS) ([1]; KD ratio, SPR): C (A compound having a KD ratio of 0.1 or more and less than 3 is denoted as C) | HRAS/KRAS (ratio of KD value with respect to HRAS to KD value with respect to KRAS) ([2]; KD ratio, SPR): B (a compound having 3 or more and less than 10 is denoted as B)
